{"source": "patent US20030203969A1", "about": "“Pharmaceutically active aromatic guanylhydrazones” (priority 2000, published 2003)", "key": {"HBV": {"system": "HBV", "assay": "HBV replication in chronically infected HepG2 2.2.15 cells (TaqMan PCR of HBV DNA)", "type": "cell-based, Hepatitis B virus", "details": "for IC50: chronically HBV-infected HepG2 2.2.15 cells", "description": "Human HepG2-2.2.15 cells (ATCC Cat. No. CRL-11997), chronically infected with HBV, are plated in 96-well microtiter plates in DMEM medium supplemented with fetal bovine serum. After incubation at 37° C. in a humidified, 5% CO2 environment for 16-24 hours, the monolayer of HepG2-2.2.15 cells is washed and the medium is replaced with complete medium containing various concentrations of test compound. Every three days during the experiments, the culture medium is replaced with fresh medium containing the appropriately diluted test compound. Six days following the initial administration of the test compound, the cell culture supernatant is collected and clarified by centrifugation. The cell viability is evaluated by a dye uptake procedure (Promega's Cell Titer Aqueous One Solution). Virion-associated HBV DNA present in the tissue culture supernatant is amplified employing PCR technology using primer pairs derived from the HBV strain ayw. Subsequently, the PCR-amplified HBV DNA is detected in real-time by monitoring increases in fluorescence signals that result from exonucleolytic degradation of a quenched fluorescent probe molecule following hybridization of the probe to the amplified HBV DNA (TaqMan; Perkin-Elmer)."}, "Vero cells": {"system": "Vero cells", "assay": "Cytotoxicity in uninfected Vero cells (HSV-1 experiments, MTS)", "type": "cell-based, African green monkey", "details": "inhibits cell growth by 50%, read-out: TC50 (the source's name)", "description": "A virus-induced cytopathic effects (CPE)-inhibition assay procedure using Promega's Cell Titer Aqueous One Solution (MTS, metabolic dye) is employed to evaluate compounds for antiviral activity against herpes simplex virus type 1 (strain HF) in Vero cells (African green monkey cells, ATCC Cat. No. CCL-81). Vero cells are pregrown in 96-well tissue culture plates using Dulbecco's Modified Eagle's Medium (DMEM) supplemented with 10% heat-inactivated fetal bovine serum (FBS), L-glutamine, penicillin, and streptomycin. To each of the replicate cell cultures is added 50 μl of the test drug solution and 50 μl of virus suspension. Cell controls containing medium alone, virus-infected controls containing medium and virus, drug cytotoxicity controls containing medium and each drug concentration, reagent controls containing culture medium only (no cells), and drug calorimetric controls containing drug and medium (no cells) are run simultaneously with the test samples. The plates are incubated at 37° C. in a humidified atmosphere containing 5% CO2 until maximum CPE is observed in the untreated virus control cultures (Day 5). CPE inhibition is determined by a dye (MTS) uptake procedure. […] The purple color of the MTS formazan is then measured spectrophotometrically at 490/650 nm. […]"}, "VZV strain ELLEN": {"system": "VZV strain ELLEN", "assay": "VZV plaque reduction assay in MRC-5 cells", "type": "cell-based, Varicella-zoster virus", "description": "MRC-5 (human embryonic lung fibroblast) cells (ATCC Cat. No. CCL-171) are seeded in 24 well plates using Eagle's Minimum Essential Medium (EMEM) supplemented with 10% heat-inactivated fetal bovine serum (FBS), L-glutamine, sodium pyruvate, non-essential amino acids, penicillin, and streptomycin. The plates are then incubated overnight at 37° C. and 5% CO2. The following day, media is aspirated and approximately 50-100 pfu (plaque forming units) of VZV strain ELLEN is added to the wells of each plate in a volume of 200 μl of assay media (EMEM supplemented with 5% heat-inactivated FBS, L-glutamine, sodium pyruvate, non-essential amino acids, penicillin, and streptomycin). The remaining wells of each plate serve as cellular control wells and receive 200 μl of assay media without virus. The virus is allowed to adsorb onto the cells for 1 hr at 37° C. and 5% CO2. Two dilutions of each test drug are prepared by diluting them in assay media containing 0.5% Methylcellulose. After the incubation period, 1 ml of each drug dilution is added to triplicate wells of a plate. Assay media (without drug) containing 0.5% Methylcellulose is added to the three cell control wells and to three virus control wells on each plate. The plates are incubated for 9-12 days to allow for plaque formation. […]"}}, "note": "Where two headings read alike, the source gives them in different places."}
{"smiles": "CC(=NNC(=N)N)c1cc(NC(=O)CCCCCCCCC(=O)Nc2cc(C(C)=NNC(=N)N)cc(C(C)=NNC(=N)N)c2)cc(C(C)=NNC(=N)N)c1", "note": "[Compound 4, N,N′-bis (3,5-diacetylphenyl) decane diamide tetrakis (amidinohydrazone)]", "values": [{"measurement": "Comments", "setting": "HBV; HBV, HepG2 2.2.15 cells", "value": "Active"}, {"measurement": "IC50", "setting": "HBV; six days, read-out: IC50 (μM) Virion-DNA", "value": 3.19, "unit": "µM"}, {"measurement": "IC50", "setting": "HBV; read-out: IC50 (μM) Intracellular Viral DNA", "value": 4.96, "unit": "µM"}, {"measurement": "CC50", "setting": "Vero cells", "value": 20.6, "unit": "µM"}, {"measurement": "IC50", "setting": "VZV strain ELLEN; MRC-5 cells newly infected with VZV", "value": 4.69, "unit": "µM"}, {"measurement": "Comments", "setting": "VZV strain ELLEN; VZV, MRC-5 cells", "value": "Significant activity"}]}
